Results taken from patent US20140066365A1, “USE OF CALIXARENES ASSOCIATED WITH AN ANTIBIOTIC IN THE TREATMENT OF BACTERIAL INFECTIONS” (priority 2011, published 2014).
Converted amounts (≈) assume the structure as drawn. Like-named read-outs stand apart in the source and are kept apart here.

Legend:
Format in all cases: cell-based
[1] = system: ESBL-producing strain of Escherichia coli, having an associated resistance to the aminoglycosides (EcR3); assay: MIC of the compounds used alone, microdilution in a liquid medium (CLSI); conditions: Escherichia coli, antibiotic alone (second value of cell), read-out: Initial MICs
Excerpt: (§1) The MICs of the antibiotics were previously defined for each strain, by the method of microdilution in a liquid medium (CLSI (Clinical and Laboratory Standards Institute), 2003).

[2] = system: Escherichia coli strain ATCC 25922 (wild type); assay: as above; conditions: Escherichia coli, ATCC25922; antibiotic alone (second value of cell); E. coli ATCC 25922; read-out: Initial MICs
Excerpt: as §1

[3] = system: Pseudomonas aeruginosa strain ATCC 27853 (wild type); assay: as above; conditions: antibiotic alone (second value of cell), P. aeruginosa ATCC 27853
Excerpt: as §1

[4] = system: Pseudomonas aeruginosa strain PaR3; assay: as above; conditions: antibiotic alone (second value of cell)
Excerpt: as §1

[5] = system: cephalosporinase-hyperproducing strain of Escherichia coli (EcR2); assay: as above; conditions: Escherichia coli, antibiotic alone (second value of cell), read-out: Initial MICs
Excerpt: as §1

[6] = system: mucoid strain of Pseudomonas aeruginosa PaR5; assay: as above; conditions: antibiotic alone (second value of cell)
Excerpt: as §1

[7] = system: penicillinase-producing strain of Escherichia coli without associated resistance (EcR1); assay: as above; conditions: Escherichia coli, antibiotic alone (second value of cell), read-out: Initial MICs
Excerpt: as §1

[8] = system: Pseudomonas aeruginosa strain PaR2; assay: microbe, parasite or virus in culture; conditions: antibiotic alone (second value of cell)
Excerpt: as §1

[9] = system: EcR1: Penicillinase-Producing Escherichia coli without Associated Resistance; assay: Antibiogram by the disk diffusion technique; conditions: for MIC mg/L (diameter in mm): EcR1, cells that print a diameter, Table A2; for Diameter: EcR1, disk diffusion
Protocol: 5.1 EcR1: Penicillinase-Producing Escherichia coli without Associated Resistance The bacterial and antibiogramidentification is carried out by the VITEK 2 system (bioMérieux) and by the disk diffusion technique.

[10] = system: EcR3: ESBL-Producing Escherichia coli; assay: Antibiogram by the disk diffusion technique; conditions: for Diameter: Table C1; for diameter in mm: Table C2
Protocol: The bacterial and antibiogramidentification is carried out by the VITEK 2 system (bioMerieux) and by the disk diffusion technique

[11] = system: SaR1: Meticillin-Resistant Staphylococcus aureus without Associated Resistance; assay: Antibiogram, MIC by the VITEK 2 system; conditions: SaR1
Protocol: (§2) The bacterial and antibiogramidentification is carried out by the VITEK 2 system (bioMérieux)

[12] = system: PaR5: Pseudomonas aeruginosa; assay: Antibiogram by the disk diffusion technique; conditions: for diameter in mm: disk diffusion inhibition diameter, strain PaR5
Protocol: (§3) The bacterial and antibiogramidentification is carried out by the VITEK 2 system (bioMérieux) and by the disk diffusion technique

[13] = system: SaR3: Meticillin-Resistant Staphylococcus aureus; assay: Antibiogram by the disk diffusion technique
Protocol: as §3

[14] = system: SaR4: Meticillin-Resistant Staphylococcus aureus; assay: Antibiogram, MIC by the VITEK 2 system; conditions: Staphylococcus aureus, SaR4, read-out: MIC
Protocol: as §3

[15] = system: PaR2: Pseudomonas aeruginosa; conditions: for Diameter: Table G1; for diameter in mm: Table G2
Protocol: as §3

[16] = system: SaR1: Meticillin-Resistant Staphylococcus aureus without Associated Resistance; assay: Antibiogram, inhibition diameter (Table D1)
Protocol: as §2

[17] = system: PaR3: Pseudomonas aeruginosa; assay: Antibiogram, MIC by the VITEK 2 system
Protocol: as §2

[18] = Pseudomonas aeruginosa, read-out: MIC

`CO[C@H]1/C=C/O[C@@]2(C)Oc3c(C)c(O)c4c(O)c(c(/C=N/N5CCN(C)CC5)c(O)c4c3C2=O)NC(=O)/C(C)=C\C=C\[C@H](C)[C@H](O)[C@@H](C)[C@@H](O)[C@@H](C)[C@H](OC(C)=O)[C@@H]1C` [Rifampicin] showed an MIC [1] of 4 µg/mL, an MIC [2] of 4 µg/mL and an MIC ([3]; Pseudomonas aeruginosa, ATCC27853, read-out: MIC) of 64 µg/mL. The MIC [4, 18] was 32 µg/mL, the MIC [5] was 2 µg/mL and the MIC [6, 18] was 16 µg/mL. The MIC [7] was 4 µg/mL, the MIC [8, 18] was 64 µg/mL (≈ 77.8 µM) and the “MIC mg/L (diameter in mm)” value [9] was 16 mm. It also gave a Diameter ([9]; Table A1) of 16 mm, a Diameter [10] of 15 mm and a diameter in mm [10] of 15 mm. The “MIC mg/L” value ([11]; Table D2) was “≦0.5 mg/L”, the MIC ([11]; Staphylococcus aureus, Table D1, read-out: MIC) was ≤ 0.5 µg/mL and the Diameter ([12]; PaR5, Table I1) was 13 mm. For the same molecule, the diameter in mm [12] was 13 mm, the Diameter ([13]; Table E1) was 31 mm and the diameter in mm ([13]; Table E2) was 31 mm. For the same molecule, the MIC ([14]; Table F1) was ≤ 1 µg/mL, the MIC ([14]; Table F2, MIC) was ≤ 1 µg/mL and the Diameter [15] was 25 mm. The diameter in mm [15] was 25 mm and the Diameter [16] was 30 mm.

In the case of Colimycin, the “MIC” value [3] is reported as 4 µg/mL, the “MIC” value [4] is reported as 8 µg/mL and the “MIC” value [6] is reported as 16 µg/mL. For the same molecule, the “MIC” value [8] was 8 µg/mL, the “MIC mg/L (diameter in mm)” value [9] was 15 mm and the “CA-SFM Interpretation” value ([9]; EcR1, diameter against CA-SFM 2011 limits) was “Susceptible”. For the same molecule, the “EUCAST Interpretation” value ([9]; EcR1, diameter against EUCAST 2011 limits) was “Resistant”, the Diameter ([9]; Table A1) was 15 mm and the Results ([9]; EcR1, interpretation of the diameter against Dmin Dmax, Table A1) was “Susceptible”. The “CA-SFM Interpretation” value ([10]; Cd CA-SFM 2011) was “Susceptible”, the Diameter [10] was 16 mm and the Results ([10]; Table C1, against Dmin Dmax) was “Susceptible”. The diameter in mm [10] was 16 mm, the “CA-SFM Interpretation” value ([17]; Cc CA-SFM 2011) was “Susceptible” and the “CLSI Interpretation” value ([17]; Cc CLSI 2011) was “Susceptible”. For the same molecule, the “EUCAST Interpretation” value ([17]; Cc EUCAST 2011) was “Susceptible”, the MIC ([17]; Table H1) was “≦0.5” and the Results ([17]; Table H1) was “Susceptible”. The “MIC mg/L” value ([17]; Table H2) was “≦0.5 mg/L”, the Diameter ([12]; PaR5, Table I1) was 23 mm and the Results ([12]; PaR5, Table I1, against Dmin-Dmax) was “Susceptible”. For the same molecule, the diameter in mm [12] was 23 mm, the “CA-SFM Interpretation” value ([12]; disk diffusion, PaR5, versus critical diameter CA-SFM 2011) was “Susceptible” and the “CLSI Interpretation” value ([12]; disk diffusion, PaR5, versus critical diameter CLSI 2011) was “Susceptible”. The “CA-SFM Interpretation” value ([15]; Cd CA-SFM 2011) was “Susceptible”, the “CLSI Interpretation” value ([15]; Cd CLSI 2011) was “Susceptible” and the Diameter [15] was 20 mm. The Results ([15]; Table G1, against Dmin-Dmax) was “Susceptible” and the diameter in mm [15] was 20 mm.
